Drawing on ChEMBL document CHEMBL3507680, “University of Dundee, Gates Library screen for HepG2 cell viability”, this text covers cytotoxicity for 98 molecules.

SMILES strings stand for the structures.

The data set in a line: Human HepG2 cell viability assay in 384 well format. It is filed as toxicity, cell-based. On the set-up: dose 125 nL, time 70.5 hour; concentration not given beside the values. To be noted: HepG2 cells, read-out: Inhibition.
Turning to `Cc1cc(C)c2[nH]c(=O)c(CN3CCCC(O)(CO)C3)cc2c1` (stereo not drawn), the cytotoxicity at 70.5 h was -13.5%.
With `COc1ccc(-n2cccn2)c(CN2CCC3(CCNCC3)C2)c1` the figure was -9.48%.
With `Cc1cccc(OC2(C(=O)O)CCN(C(=O)CCc3ccco3)CC2)c1` the figure was 30.3%; with `Cc1ccccc1N1CCN(C(=O)c2ncc(F)cc2F)C(C)C1` (stereo not drawn), -3.38%.
`COc1cccc(-c2ncc(CN3CC[C@H](CO)[C@@H](O)C3)s2)c1`: the cytotoxicity at 70.5 h was -20.8%.
For `O=C(c1cc(F)cc(Cl)c1)N1C[C@@H]2CC[C@H](C1)N(Cc1ccccc1)C2`, the cytotoxicity at 70.5 h was -3.75%.
With `Cc1ccccc1N1CCCN(C(=O)CCc2cccnc2)CC1` the figure was 0.239%.
With `CCNC(=O)[C@@H]1C[C@H](N)CN1C(=O)c1c[nH]c2ccccc12` the figure was -0.954%.
With `O=C(O)C1(Oc2ccc3ccccc3c2)CCN(c2ccncc2)CC1` the figure was 21.4%; with `C=C(C)COc1cccc(C(=O)N(C)C(C)c2ccncn2)c1` (stereo not drawn), -7.56%; with `Cc1cc(C)cc(CN2CCN(C(=O)CCc3n[nH]c(C)n3)CC2=O)c1`, 22.5%.
For `CCCOc1ccc(OCCN2CCOCS2(=O)=O)cc1`, the cytotoxicity at 70.5 h was -10.3%.
With `CN(Cc1cc2cc(F)ccc2[nH]1)C(=O)C1CC(=O)N(C2CCCC2)C1` (stereo not drawn) the figure was -4.53%; with `O=C(NCC1CCCO1)c1coc(Cn2cnc3ccccc32)n1` (stereo not drawn), -4.46%; with `CC(=O)NCCc1nc(C(C)C)nn1-c1ccncc1C`, -14.7%.
Under `COCC(=O)N1CCc2cccc(S(=O)(=O)N3CCOCC3)c2C1` stands -6.37%; under `CN(CCc1ccccn1)C(=O)CCC1CCCN(c2ccncc2)C1` (stereo not drawn), 0%; under `CCSCCn1cc(-c2nccs2)nn1`, -9.08%.
Under `COc1cccc(-c2cccc(-c3ccn(CC4COCCO4)n3)c2)n1` (stereo not drawn) stands 13.1%; under `CSCCCN1C[C@H](NC(=O)c2cc(C3CC3)on2)[C@@H](C2CC2)C1`, -7.58%.
Regarding `O=C(NCCn1ccnc1-c1cc2n(n1)CCCNC2)c1ccncc1`, the cytotoxicity at 70.5 h was -2.02%.
`COc1ccc(N2CCC(N3C[C@H](NC(C)=O)[C@@H](C(C)C)C3)CC2)cc1`: the cytotoxicity at 70.5 h was -7.18%.
With `Cc1noc(-c2ccc(N(C)Cc3ccncc3C)nc2)n1` the figure was -5.41%; with `COC(=O)N1CCCCC1C(=O)N1CCN(c2ncccc2C)CC1` (stereo not drawn), -1.8%; with `CN(Cc1cc2n(n1)CCCNC2)Cc1ccno1`, -5.8%.
With `Cc1cc(C)n2nc(C(=O)N3CCCC4(CCOC4)C3)cc2n1` (stereo not drawn) the figure was -10.3%.
Under `Cc1nc(C(=O)N2CCC(c3nnc(Cn4ccnc4)n3C)CC2)cs1` stands -8.64%; under `CN(C)Cc1nnc(C2CCCN(Cc3ccc(Cl)s3)C2)n1C` (stereo not drawn), 5.14%.
For the molecule `CN(C)C(=O)c1cn2cc(-c3ccccc3Cl)n(CC3CC3)c(=O)c2n1`, the cytotoxicity at 70.5 h is -3.22%.
As to `CCC1CN(C(=O)c2cccc(O)c2)CCC(=O)N1Cc1ccccc1` (stereo not drawn), the cytotoxicity at 70.5 h was 0.303%.
Under `Cn1cc(CN2CCCC(CCc3c(F)cccc3F)C2)cn1` (stereo not drawn) stands 1.58%; under `CCn1ccnc1CNC1CC(=O)N(CCc2cccc(Cl)c2)C1` (stereo not drawn), -2.81%.
Under `COc1ccc(-c2n[nH]cc2CN(C)CCC2CCOCC2)cc1F` stands -1.66%; under `O=C(CC1CCc2ccccc21)NC1(C(=O)O)CCCC1` (stereo not drawn), 22.9%; under `COc1cccc(CCn2ccnc2-c2cn(C3CCNCC3)nn2)c1`, 28.6%.
With `CCCc1nccn1-c1ccc(C(O)CN2CCOCC2)cc1` (stereo not drawn) the figure was 27.6%; with `CCn1c(CC2CCN(C(=O)c3ccnn3C)CC2)n[nH]c1=O`, -6.64%.
On to `O=C1N(Cc2ccc(F)cc2)CCCC12CCN(C1CCSCC1)C2` (stereo not drawn), for which the cytotoxicity at 70.5 h is -6%.
With `O=C(C1CCCC1)N1CC[C@]2(O)CCN(Cc3ncccn3)C[C@@H]2C1` the figure was -3.12%.
Turning to `O=C(CCc1cc2n(n1)CCCN(C(=O)[C@H]1CCCO1)C2)NC1CC1`, the cytotoxicity at 70.5 h was determined as 3.28%.
With `COc1ccc(OC)c(C2CCN(C3CCOCC3)C2)c1` (stereo not drawn) the figure was 6.32%; with `CCOc1ccccc1C(=O)N1CCCC(O)(CN(C)C)C1` (stereo not drawn), 11.6%.
Under `Cc1nc(CN2CCN(C(=O)COc3c(C)ccc(C)c3C)CC2)no1` stands -4.73%; under `Cc1ccc(NC(=O)[C@@H]2C[C@H](C(=O)O)CN(Cc3sccc3C)C2)cn1`, 18.3%.
With `OC1CCN(c2ccnc(NCCc3ccccc3Cl)n2)C1` (stereo not drawn) the figure was -3.46%; with `N#Cc1cccc(N2CCC3(CC2)Nc2ccccc2NC3=O)n1`, -5.8%; with `CCn1c(N)nc2cc(C(=O)NCCc3ccncc3)cnc21`, -13.4%.
As for `O=C1CCCN1Cc1nc(-c2ccsc2)no1`, the cytotoxicity at 70.5 h was 19.8%.
`Cc1nc(N2CCC(O)(c3ccc(F)cc3)CC2)c2c(C)nn(C)c2n1`: the cytotoxicity at 70.5 h was -3.16%.
Under `CS(=O)(=O)N1CCC(NCC2(N3CCOCC3)CCCCC2)CC1` stands -12.3%; under `O=C(NCC1CCCO1)Nc1nnc(C(F)(F)F)s1` (stereo not drawn), -15.8%.
Under `c1cncc(-n2cnnc2CC2CCNCC2)c1` stands -0.719%; under `COc1cc(F)c(CN2CCN(CC(C)C)C(=O)C2C)cc1OC` (stereo not drawn), -1.44%.
Under `CC(=O)N1CCc2c(nc(N(C)C)nc2NCc2cccs2)C1` stands -4.81%.
For `COc1cc(CN2CCCC23CCN(c2ccccn2)CC3)ccc1F`, the cytotoxicity at 70.5 h is -0.0865%.
In the case of `CNc1ncc(CN(C)Cc2cc3n(n2)CCNC3)cn1`, the cytotoxicity at 70.5 h was -9%.
For `Cc1ccc(CN2CCN(Cc3ccc4nonc4c3)CC2=O)cc1`, the cytotoxicity at 70.5 h was 1.65%.
Under `CCOc1cc(CN2CCCC2)ccc1Oc1cccc(C#N)n1` stands -1.2%.
Under `COCCc1noc(CN(C)c2nc(C)cc(C)n2)n1` stands -9.27%; under `O=C(O)CCc1cc2n(n1)CCCN(C(=O)c1cc3ccccc3s1)C2`, 30%; under `CCN1CCN(CC(=O)N2CCOC(Cc3ccc(OC)cc3)C2)CC1` (stereo not drawn), -16%.
Under `CC(C)N1CCC(C(=O)N(C)C(C)c2ccon2)CC1` (stereo not drawn) stands -0.598%.
`Cc1c(C(C)NC2CCN(C(C)C)CC2)cnn1-c1ccc(F)cc1F` (stereo not drawn): the cytotoxicity at 70.5 h was -9.98%.
With `CC(C)(C)N1CC(C(=O)N2CC(Oc3ccc(F)cc3)C2)CC1=O` (stereo not drawn) the figure was 18.6%.
Under `Cc1oc(-c2ccsc2)nc1CN1CC[C@@H]2CCCC[C@H]2C1` stands 13.8%; under `CCCN(CCOC)C(=O)c1cc(Cn2c(C)nc3ccccc32)[nH]n1`, -2.8%.
Regarding `CCn1c(CC2CCN(S(=O)(=O)c3cccc(C)c3)CC2)nn(C)c1=O`, the cytotoxicity at 70.5 h is -4.11%.
As to `CC(C)(C)c1cc2ncn(CCCN3CCCCC3CO)c(=O)c2s1` (stereo not drawn), the cytotoxicity at 70.5 h is -14.7%.
With `CC(C)Cc1ncc2c(n1)CN(C(=O)c1ccc(CN3CCCC3)o1)C2` the figure was -7.27%; with `CC(C)N1CCC(CC(=O)NCCc2cc(O)ncn2)CC1`, -11.7%.
With `NC(=O)C1CCCN(Cc2ccc(C(=O)Nc3cnns3)cc2)C1` (stereo not drawn) the figure was 5.24%; with `CCC[C@@H]1CN(Cc2ccccc2-c2ccco2)C[C@H]1NC(C)=O`, -5.42%; with `CCc1nc(NC(=O)NCCc2cccc(C)n2)nn1C`, -12.7%.
On to `C[C@@H]1CN(Cc2nnc(-c3cccnc3)o2)CC[C@]1(C)O`, for which the cytotoxicity at 70.5 h turned out to be 6.07%.
Under `COc1cccc(OC)c1OCCn1c(C)c(C)oc1=O` stands 0.271%; under `CC[C@H]1CN(C(=O)c2cnc(CN3CCCC3)s2)CC[C@@]1(C)O`, 22.4%; under `Cc1ncsc1CCC(=O)NC1CCN(c2ccc(Cl)nn2)CC1`, -13.9%.
`CCOc1ccccc1-c1cc2c(cc1C(N)=O)OCO2`: the cytotoxicity at 70.5 h is 9.52%.
Under `CCc1cc(CN2CCC(CCC(=O)Nc3ccccc3Cl)CC2)on1` stands -0.0329%; under `CCCc1nc(C(=O)N(C)Cc2cnn(-c3cccc(OC)c3)c2)cs1`, -8.69%.
For `O=C(O)[C@@H]1CN(Cc2ccc3nsnc3c2)C[C@H]1c1ccncc1`, the cytotoxicity at 70.5 h came to 6.98%.
Under `CCCc1c(C2CCOC(C)(C)C2)nc(N)c(C#N)c1-c1cnn(C)c1` (stereo not drawn) stands -2.75%; under `CCN(Cc1noc(C)n1)C(=O)CC1C(=O)NCCN1CC(C)(C)C` (stereo not drawn), 9.61%.
With `O=C1Nc2ccccc2C12CCCN(Cc1ccncc1)C2` (stereo not drawn) the figure was -10.6%.
With `Cc1ccc(N2CCN(C(=O)CCc3n[nH]c(C)c3C)CC2=O)cc1` the figure was -0.118%.
Take `OCCN1CCc2[nH]nc(C(c3ccccc3)c3ccccc3)c2C1`: the cytotoxicity at 70.5 h was -7.95%.
Under `CCn1cc(CN2CCCn3nc(CNC(=O)N(C)C)cc3C2)cn1` stands -7.73%; under `COc1cc2c(cc1CNC(=O)C(C)n1ccnc1C(C)C)OCCO2` (stereo not drawn), -3.89%; under `C[C@@H]1CN(Cc2ccncc2)C[C@@]1(O)C1CC1`, -11.5%.
With `CCN(Cc1c(C)nn(C)c1C)C(=O)C1COc2ccccc2C1` (stereo not drawn), the cytotoxicity at 70.5 h was -4.62%.
Turning to `Cc1cc(CC2COc3ccccc3C2)cnc1N` (stereo not drawn), the cytotoxicity at 70.5 h is -13.2%.
Under `CCC1c2cccn2CCN1C(=O)c1ccno1` (stereo not drawn) stands -9.21%.
Under `OCc1ccc(CN2CCC(n3cc(-c4ccsc4)nn3)CC2)o1` stands -5.24%; under `CC(Cn1cccn1)NCc1csc2c1CCCC2` (stereo not drawn), 0.457%.
Consider `CCCN1CCN(C(=O)Cc2cccnc2)[C@H]2CS(=O)(=O)C[C@H]21`, for which the cytotoxicity at 70.5 h was 11.9%.
As for `CCCc1nc(C)cc(N2CCNC(C(=O)NCc3cccnc3)C2)n1` (stereo not drawn), the cytotoxicity at 70.5 h was 31%.
For the molecule `CCc1cnc(C)nc1NCCc1nc(N)cc(O)n1`, the cytotoxicity at 70.5 h is -3.5%.
Under `CNc1cc(C)nc(N2CCC3(CC2)[C@H](O)C[C@@H]3OCCO)n1` stands -4.12%.
